# From US20250388565A1, “ESTROGEN RECEPTOR ALPHA DEGRADERS AND METHODS OF USE THEREOF” (Relay Therapeutics, Inc., priority 2022, published 2025)
# Target: T1, ERα protein (HiBiT-tagged) in ESR1_HiBiT KI MCF7 cells (Homo sapiens, UniProt P03372)
# T1 sequence (P03372 1-595): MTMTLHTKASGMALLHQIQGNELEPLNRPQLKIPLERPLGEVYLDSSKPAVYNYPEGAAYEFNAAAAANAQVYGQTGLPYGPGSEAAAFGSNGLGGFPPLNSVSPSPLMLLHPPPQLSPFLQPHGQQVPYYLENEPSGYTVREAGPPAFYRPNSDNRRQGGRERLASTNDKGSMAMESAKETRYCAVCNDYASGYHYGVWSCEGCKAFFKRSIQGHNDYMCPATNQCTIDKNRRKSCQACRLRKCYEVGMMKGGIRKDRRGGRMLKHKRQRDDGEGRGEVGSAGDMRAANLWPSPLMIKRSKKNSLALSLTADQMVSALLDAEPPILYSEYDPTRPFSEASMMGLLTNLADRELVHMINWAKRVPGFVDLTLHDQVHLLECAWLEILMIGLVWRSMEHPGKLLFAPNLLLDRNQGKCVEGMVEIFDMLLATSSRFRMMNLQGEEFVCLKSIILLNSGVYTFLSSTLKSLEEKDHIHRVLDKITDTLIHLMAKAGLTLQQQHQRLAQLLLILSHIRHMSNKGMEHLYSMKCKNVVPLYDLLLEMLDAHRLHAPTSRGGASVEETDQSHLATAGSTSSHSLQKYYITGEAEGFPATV
# Assay: Nano Glo HiBiT Lytic Degradation Assay
# Format: cell-based
# Details: 6 hours with compound, 14-point dose response 1:3, bell-shape curve fit, half-maximal effect of first Hill model, read-out: MCF7 ESR1 HiBiT - (DC50)
# How it was run: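 HiBiT-tagged endogenous ERα remaining in MCF7 knock-in cells was quantified by lytic luminescence after a 6 h treatment. DC50 values derive from a bell-shaped curve, taken at the first Hill component's half-maximal effect.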
row,SMILES,DC50
1,"C[C@]1(c2ccccc2)CCc2cc(O)ccc2[C@@H]1c1ccc(N2CCC(CN3CCN(c4ccc5c(c4)CN([C@H]4CCC(=O)NC4=O)C5=O)CC3)CC2)cc1 [Compound I-344, (S)-3-(5-(4-((1-(4-((1R,2S)-6-hydroxy-2-methyl-2-phenyl-1,2,3,4-tetrahydronaphthalen-1-yl)phenyl)piperidin-4-yl)methyl)piperazin-1-yl)-1-oxoisoindolin-2-yl)piperidine-2,6-dione]",84 nM
2,"CC1(C)CCC([C@H]2CCc3cc(O)ccc3[C@H]2c2ccc(N3CCC(CN4CCN(c5ccc6c(c5)CN([C@H]5CCC(=O)NC5=O)C6=O)CC4)CC3)cc2)CC1 (single isomer, unassigned) [Compound I-105]",45.8 nM
3,"O=C1CCC(N2Cc3cc(N4CCN(CC5CCN(c6ccc([C@H]7c8ccc(O)cc8CC[C@H]7c7cccnc7)cc6)CC5)CC4)ccc3C2=O)C(=O)N1 (single isomer, unassigned) [Compound I-108]",17.3 nM
4,"Cn1c(=O)n(C2CCC(=O)NC2=O)c2cccc(N3CCN(CC4CCN(c5ccc([C@@H]6c7ccc(O)cc7CC[C@@H]6c6ccccc6)cc5)CC4)CC3)c21 (stereo partly drawn) [Compound I-191, 3-(4-(4-((1-(4-((1R,2S)-6-hydroxy-2-phenyl-1,2,3,4-tetrahydronaphthalen-1-yl)phenyl)piperidin-4-yl)methyl)piperazin-1-yl)-3-methyl-2-oxo-2,3-dihydro-1H-benzo[d]imidazol-1-yl)piperidine-2,6-dione]",1.09 nM
5,"CC(C)(O)[C@H]1CCc2cc(O)ccc2[C@H]1c1ccc(N2CCC(CN3CCN(c4ccc5c(c4)CN([C@H]4CCC(=O)NC4=O)C5=O)CC3)CC2)cc1 [Compound I-204, (S)-3-(5-(4-((1-(4-((1R,2S)-6-hydroxy-2-(2-hydroxypropan-2-yl)-1,2,3,4-tetrahydronaphthalen-1-yl)phenyl)piperidin-4-yl)methyl)piperazin-1-yl)-1-oxoisoindolin-2-yl)piperidine-2,6-dione]",2 nM
6,"C[C@@]1(c2ccccc2)CCc2cc(O)ccc2[C@@H]1c1ccc(N2CCC(CN3CCN(c4ccc5c(c4)CN([C@H]4CCC(=O)NC4=O)C5=O)CC3)CC2)cc1 [Compound I-148, (S)-3-(5-(4-((1-(4-((1R,2R)-6-hydroxy-2-methyl-2-phenyl-1,2,3,4-tetrahydronaphthalen-1-yl)phenyl)piperidin-4-yl)methyl)piperazin-1-yl)-1-oxoisoindolin-2-yl)piperidine-2,6-dione]",424 nM
7,"O=C1CC[C@H](N2Cc3cc(N4CCN(CC5CCN(c6ccc([C@@H]7c8ccc(O)cc8CC[C@@H]7C7=CCCCC7)cc6)CC5)CC4)ccc3C2=O)C(=O)N1 (single isomer, unassigned) [Compound I-407]",0.19 nM
8,"C[C@@H]1O[C@H](C2CCCCC2)[C@@H](c2ccc(N3CCC(CN4CCN(c5ccc6c(c5)CN([C@H]5CCC(=O)NC5=O)C6=O)CC4)CC3)cc2)c2ccc(O)cc21 (single isomer, unassigned) [Compound I-252]",22 nM
9,"O=C1CCC(N2Cc3cc(N4CCN(CC5CCN(c6ccc([C@@H]7c8ccc(O)cc8CC[C@@H]7c7ccccc7)cc6)CC5)CC4)c(F)cc3C2=O)C(=O)N1 (single isomer, unassigned) [II-19]",≥ 10000 nM
10,"O=C1CC[C@H](N2Cc3cc(N4CCN(CC5CCN(c6ccc([C@H]7c8ccc(O)cc8C(F)(F)C[C@H]7c7ccccc7F)cc6)CC5)CC4)ccc3C2=O)C(=O)N1 [Compound I-313, (S)-3-(5-(4-((1-(4-((1S,2R)-4,4-difluoro-2-(2-fluorophenyl)-6-hydroxy-1,2,3,4-tetrahydronaphthalen-1-yl)phenyl)piperidin-4-yl)methyl)piperazin-1-yl)-1-oxoisoindolin-2-yl)piperidine-2,6-dione]",15 nM
11,"Cn1c(=O)n(C2CCC(=O)NC2=O)c2ccc(N3CCN(CC4CCN(c5ccc([C@@H]6c7ccc(O)cc7CC[C@@H]6c6ccccc6)cc5)CC4)CC3)cc21 (stereo partly drawn) [Compound I-190, 3-(5-(4-((1-(4-((1R,2S)-6-hydroxy-2-phenyl-1,2,3,4-tetrahydronaphthalen-1-yl)phenyl)piperidin-4-yl)methyl)piperazin-1-yl)-3-methyl-2-oxo-2,3-dihydro-1H-benzo[d]imidazol-1-yl)piperidine-2,6-dione]",0.4 nM
12,O=C1CC[C@H](N2Cc3cc(N4CCN(CC5CCN(c6ccc([C@H]7c8ccc(O)cc8CC[C@H]7c7ccccc7)cc6F)CC5)CC4)ccc3C2=O)C(=O)N1 [II-81],≥ 10000 nM
13,"O=C1CC[C@H](N2Cc3cc(N4CCN(CC5CCN(c6ccc([C@@H]7c8ccc(O)cc8CO[C@H]7C7CCCCC7)cc6)CC5)CC4)ccc3C2=O)C(=O)N1 [Compound I-249, (S)-3-(5-(4-((1-(4-((3S,4R)-3-cyclohexyl-7-hydroxyisochroman-4-yl)phenyl)piperidin-4-yl)methyl)piperazin-1-yl)-1-oxoisoindolin-2-yl)piperidine-2,6-dione]",0.61 nM
14,"O=C1CC[C@H](N2Cc3cc(N4CCN(CC5CCN(c6ccc([C@@H]7CCCc8cc(O)ccc87)cc6)CC5)CC4)ccc3C2=O)C(=O)N1 (single isomer, unassigned) [Compound I-103]",≥ 10000 nM
15,"O=C1CC[C@H](N2Cc3cc(N4CCN(CC5CCN(c6ccc([C@H]7c8ccc(O)cc8CO[C@H]7c7ccc(C(F)(F)F)cc7)cc6)CC5)CC4)ccc3C2=O)C(=O)N1 [Compound I-350, (S)-3-(5-(4-((1-(4-((3R,4S)-7-hydroxy-3-(4-(trifluoromethyl)phenyl)isochroman-4-yl)phenyl)piperidin-4-yl)methyl)piperazin-1-yl)-1-oxoisoindolin-2-yl)piperidine-2,6-dione]",20 nM
16,"O=C1CCN(c2ccc(N3CCC4(CCN(CC5CCN(c6ccc([C@@H]7c8ccc(O)cc8C(F)(F)C[C@@H]7c7ccccc7)cc6)CC5)C4)C3)cc2)C(=O)N1 (single isomer, unassigned) [Compound I-289]",≥ 10000 nM
17,"COc1cccc([C@H]2OCc3cc(O)ccc3[C@H]2c2ccc(N3CCC(CN4CCN(c5ccc6c(c5)CN([C@H]5CCC(=O)NC5=O)C6=O)CC4)CC3)cc2)c1 [Compound I-373, (S)-3-(5-(4-((1-(4-((3S,4R)-7-hydroxy-3-(3-methoxyphenyl)isochroman-4-yl)phenyl)piperidin-4-yl)methyl)piperazin-1-yl)-1-oxoisoindolin-2-yl)piperidine-2,6-dione]",0.78 nM
18,"CC1(C)CCC([C@@H]2CCc3cc(O)ccc3[C@@H]2c2ccc(N3CCC(CN4CCN(c5ccc6c(c5)CN([C@H]5CCC(=O)NC5=O)C6=O)CC4)CC3)cc2)CC1 (single isomer, unassigned) [Compound I-106]",1030 nM
19,"O=C1CC[C@H](N2Cc3cc(N4CCN(CC5CCN(c6ccc([C@H]7c8ccc(O)cc8C(F)(F)C[C@H]7C7CCCCC7)cc6)CC5)CC4)ccc3C2=O)C(=O)N1 [Compound I-98, (S)-3-(5-(4-((1-(4-((1S,2S)-2-cyclohexyl-4,4-difluoro-6-hydroxy-1,2,3,4-tetrahydronaphthalen-1-yl)phenyl)piperidin-4-yl)methyl)piperazin-1-yl)-1-oxoisoindolin-2-yl)piperidine-2,6-dione]",≥ 10000 nM
20,"O=C1CCC(N2Cc3cc([C@@H]4CCN(CC5CCN(c6ccc([C@@H]7c8ccc(O)cc8CC[C@@H]7c7ccccc7)cc6)CC5)C[C@H]4F)ccc3C2=O)C(=O)N1 (single isomer, unassigned) [II-88]",2 nM
21,"O=C1CCN(c2ccc(N3CCC4(CCN(CC5CCN(c6ccc([C@@H]7c8ccc(O)cc8C(F)(F)C[C@@H]7c7ccccc7)cc6)CC5)C4)CC3)cc2)C(=O)N1 [Compound I-292, 1-(4-(2-((1-(4-((1R,2S)-4,4-difluoro-6-hydroxy-2-phenyl-1,2,3,4-tetrahydronaphthalen-1-yl)phenyl)piperidin-4-yl)methyl)-2,8-diazaspiro[4.5]decan-8-yl)phenyl)dihydropyrimidine-2,4 (1H,3H)-dione]",0.73 nM
22,"O=C1CC[C@H](N2Cc3cc(N4CCN(C[C@@H]5CCN(c6ccc([C@@H]7c8ccc(O)cc8CC[C@@H]7c7ccccc7)cc6)C5)CC4)ccc3C2=O)C(=O)N1 (single isomer, unassigned) [II-32]",≥ 10000 nM
23,"O=C1CCC(N2Cc3cc(N4CCN(CC5CCN(c6ccc([C@@H]7c8ccc(O)cc8C(F)(F)C[C@@H]7c7ccc(F)cc7)cc6)CC5)CC4)ccc3C2=O)C(=O)N1 (stereo partly drawn) [Compound I-309, 3-(5-(4-((1-(4-((1R,2S)-4,4-difluoro-2-(4-fluorophenyl)-6-hydroxy-1,2,3,4-tetrahydronaphthalen-1-yl)phenyl)piperidin-4-yl)methyl)piperazin-1-yl)-1-oxoisoindolin-2-yl)piperidine-2,6-dione]",0.39 nM
24,"C[C@H]1O[C@@H](C2CCCCC2)[C@@H](c2ccc(N3CCC(CN4CCN(c5ccc6c(c5)CN([C@H]5CCC(=O)NC5=O)C6=O)CC4)CC3)cc2)c2ccc(O)cc21 [Compound I-251, (S)-3-(5-(4-((1-(4-((1R,3S,4S)-3-cyclohexyl-7-hydroxy-1-methylisochroman-4-yl)phenyl)piperidin-4-yl)methyl)piperazin-1-yl)-1-oxoisoindolin-2-yl)piperidine-2,6-dione]",44 nM
